Patent publication US10668048B2, “Compounds for inhibiting bacterial growth via phosphatidylglycerol binding” (Wichita State University, priority 2016, dated 2020)
In brackets after ≈: the same amount, converted by molar mass. Blank lines part the entries; values can stand above or below the compound they belong to.

How the values were obtained:
[1] = Liptin-PG binding in solution (ITC and/or 1H NMR titration)
Experimental: The lipid binding ability of liptins 1-3 (FIG. 2A) have been investigated in solution using isothermal titration calorimetry (ITC) and/or ^1H NMR. Stoichiometry of binding was accomplished with Job plots using ^1H NMR. […] The use of organic solvents allowed the determination of binding motif using ^1H NMR.
Liptins 1b, 1e, 2c, 2d, 3a, 3c in DMF/5% CHCl3; 3e in 50% DMSO, 45% CHCl3, 5% CH3OH.
Liptins 1h and 1i 40% DMSO, 60% CHCl3, 3f in 20% DMSO, 80% CHCl3.

[2] = system: A549 (lung carcinoma epithelial) cells; test: LDH release cytotoxicity assay; format: cell-based; details: near 15 μM
Experimental: (§1) Toxicity Studies of human HeLa (vaginal carcinoma) and A549 (lung carcinoma epithelial) cells with Liptins 1h and 1k.
(§2) Eukaryote cell toxicity was determined using a Pierce LDH assay kit including the Chemical Compound-Mediated Cytotoxicity assay. This kit measures cell death by measuring the amount of lactate dehydrogenase released from cells. Lactate dehydrogenase (LDH) is a cytosolic enzyme present in many different types of cells. When the plasma membrane is damaged, LDH is released into cell culture media. The released LDH can be quantified by a coupled enzymatic reaction. First, LDH catalyzes the conversion of lactate to pyruvate via reduction of NAD+ to NADH. Second, diaphorase uses NADH to reduce a tetrazolium salt (INT) to a red formazan product. Therefore, the level of formazan formation is directly proportional to the amount of released LDH in the medium.

[3] = system: human HeLa (vaginal carcinoma) cells; test: LDH release cytotoxicity assay; format: cell-based; details: up to about 15 μM
Experimental: as §1, §2

MRSA [4] = test: Live-Dead stain (BacLight SYTO 9 / propidium iodide); format: cell-based, Methicillin-resistant S. aureus; details: 90 minutes
Experimental: (§3) Molecular Probes BacLight© kits containing the SYTO 9 green-fluorescent dye and propidium iodide red-fluorescent dye were used to detect live or dead bacteria after ninety minute exposure of bacteria to liptins 1h or 1k. Bacteria in Muller Hinton culture were grown to an OD=0.3, were inoculated with liptins 1h and 1k and after ninety minutes stained with a mixture of the above dyes and affixed to a slide to be examined under a light microscope (40×) to determine the number of live and dead cells (green colored cells considered alive and red-colored cells considered dead). Data was calculated based upon an average of 5 different plate counts from each slide, and is based on a percent of total bacteria counted (live and dead). Control sample contains no liptin.

Staphylococcus aureus [5] = test: MIC in cation-adjusted Muller Hinton culture; format: cell-based; details: no growth after 24 hours
Experimental: (§4) MICs were determined in cation-adjusted Muller Hinton culture. Standard CLSI protocol for serial dilutions of liptin concentrations were used to determine the MIC, starting at 0.01 OD. Two different experimental cultures were used and each data point measured in triplicate.

Pseudomonas aeruginosa = test: MIC in cation-adjusted Muller Hinton culture; format: cell-based; details: no growth after 24 hours
Experimental: as §4

Acinetobacter baumannii [6] = test: MIC in cation-adjusted Muller Hinton culture; format: cell-based; details: no growth after 24 hours
Experimental: as §4

Klebsiella pneumoniae [7] = test: MIC in cation-adjusted Muller Hinton culture; format: cell-based; details: no growth after 24 hours
Experimental: as §4

Mycobacterium smegmatis [8] = test: MIC in cation-adjusted Muller Hinton culture; format: cell-based; details: no growth after 24 hours
Experimental: as §4

Escherichia coli [9] = test: MIC in cation-adjusted Muller Hinton culture; format: cell-based; details: no growth after 24 hours
Experimental: as §4

[10] = system: Gram-positive and Gram-negative bacteria; test: Growth curves in BHI culture with liptins 1h-k; format: cell-based; details: one inoculation
Experimental: Growth curves in BHI culture were generated (not shown) from liquid shake-flask cultures using absorbance measurements at 600 nm at different concentrations of liptins 1h-k. Uninoculated control flasks were used as blanks. Absorbance values of 0.1 OD unit was considered reasonable threshold for positive growth. The use of the nutrient-rich BHI culture allowed us to measure the effects of the small structural differences in liptins 1h-k on bacterial growth rates over long periods of time. […] Liptin exposure appears to stop bacterial growth, as evidenced by long lag phases, which increase with liptin concentration, and growth rates and maximum cell densities are decreased with liptin treatment.

MRSA [11] = test: MIC in cation-adjusted Muller Hinton culture; format: cell-based, Methicillin-resistant S. aureus; details: no growth after 24 hours
Experimental: as §4

MRSA [12] = test: MBC in cation-adjusted Muller Hinton culture; format: cell-based, Methicillin-resistant S. aureus
Experimental: as §4, with “Minimum bactericidal concentration (MBC)” for “MICs”, “MBC,” for “MIC,”

Staphylococcus aureus [13] = test: Live-Dead stain (BacLight SYTO 9 / propidium iodide); format: cell-based; details: 5 μM, 90 minutes
Experimental: as §3

Acinetobacter baumannii [14] = test: as above; format: cell-based; details: 5 μM, 90 minutes
Experimental: as §3

Klebsiella pneumoniae [15] = test: as above; format: cell-based; details: 90 minutes
Experimental: as §3

Mycobacterium smegmatis [16] = test: as above; format: cell-based; details: 5 μM, 90 minutes
Experimental: as §3

Escherichia coli [17] = test: as above; format: cell-based; details: 10 μM, 90 minutes
Experimental: as §3

S. aureus = test: BacLight Bacterial Membrane Potential kit, plasma membrane depolarization; format: cell-based; details: one half the liptins' MICs; concentration dependent
Experimental: (§5) The Molecular Probes BacLight® Bacterial Membrane Potential kit was used to detect changes in the polarization of the bacterial plasma membrane upon inoculation of bacteria with varying concentrations of liptins 1h or 1k. […] CCCP (carbonyl cyanide 3-chlorophenylhydrazone) is a proton ionophore that destroys plasma membrane potential and as such is a positive control. […] With plasma membrane depolarization the bacterial cell loses its ability to synthesize ATP and proteins. Additionally loss of membrane potential stops the ability for cell replication due to an inability for proper placement of divisome proteins in the plasma membrane. […] Thus, it is possible that the liptin's mechanism of action is a result of their deleterious effect on the functioning of electron transport proteins found in the plasma membrane.

E. coli = test: as above; format: cell-based; details: one half the liptins' MICs; concentration dependent
Experimental: as §5

Staphylococcus aureus [18] = test: MBC in cation-adjusted Muller Hinton culture; format: cell-based
Experimental: as §4, with “Minimum bactericidal concentration (MBC)” for “MICs”, “MBC,” for “MIC,”

Acinetobacter baumannii [19] = test: MBC in cation-adjusted Muller Hinton culture; format: cell-based
Experimental: as §4, with “Minimum bactericidal concentration (MBC)” for “MICs”, “MBC,” for “MIC,”

Klebsiella pneumoniae [20] = test: MBC in cation-adjusted Muller Hinton culture; format: cell-based
Experimental: as §4, with “Minimum bactericidal concentration (MBC)” for “MICs”, “MBC,” for “MIC,”

Mycobacterium smegmatis [21] = test: MBC in cation-adjusted Muller Hinton culture; format: cell-based
Experimental: as §4, with “Minimum bactericidal concentration (MBC)” for “MICs”, “MBC,” for “MIC,”

Escherichia coli [22] = test: MBC in cation-adjusted Muller Hinton culture; format: cell-based
Experimental: as §4, with “Minimum bactericidal concentration (MBC)” for “MICs”, “MBC,” for “MIC,”

[23] = NMR titrations, DMF/5% CHCl3, 1:1 binding stoichiometry
[24] = ITC or NMR titrations, 40% DMSO, 60% CHCl3

SMILES: Cc1ccc2c(c1)CNCCCNCc1cc(C)ccc1OCCCCCO2 [Liptin 1b]
- Ka [1, 23]: 200 M⁻¹

SMILES: Cc1ccc2c(c1)CNCCCCNCc1cc(C)ccc1OCCCCO2 [Liptin 1e]
- Ka [1, 23]: 250 M⁻¹

SMILES: CCCCCCNC(=O)CCc1ccc2c(c1)CNCCCNCc1cc(CCC(=O)NCCCCCC)ccc1OCCCCCO2 [Liptin 1h]
- cytotoxicity (LDH release) [2]: over 25%
- cell toxicity (LDH release) [3]: large toxicity
- Dead (MRSA [4]; 5 μM): 72%
- Live (MRSA [4]; 5 μM): 28%
- Dead (MRSA [4]; 10 μM): 84%
- Live (MRSA [4]; 10 μM): 15%
- MIC (Staphylococcus aureus [5]): 2.5 µM (≈ 1.66 µg/mL)
- MIC (Pseudomonas aeruginosa): 9 µM (≈ 5.98 µg/mL)
- MIC (Acinetobacter baumannii [6]): 2.5 µM (≈ 1.66 µg/mL)
- MIC (Klebsiella pneumoniae [7]): 3 µM (≈ 1.99 µg/mL)
- MIC (Mycobacterium smegmatis [8]): 2.5 µM (≈ 1.66 µg/mL)
- MIC (Escherichia coli [9]): 2 µM (≈ 1.33 µg/mL)
- antibacterial activity from growth curves [10]: most potent
- Ka [1, 24]: 4600 M⁻¹
- MIC (MRSA [11]): 3 µM (≈ 1.99 µg/mL)
- MBC (MRSA [12]): 10 µM (≈ 6.65 µg/mL)
- Dead (Staphylococcus aureus [13]): 39%
- Live (Staphylococcus aureus [13]): 61%
- Dead (Acinetobacter baumannii [14]): 88%
- Live (Acinetobacter baumannii [14]): 12%
- Dead (Klebsiella pneumoniae [15]; 5 μM): 67%
- Live (Klebsiella pneumoniae [15]; 5 μM): 33%
- Dead (Klebsiella pneumoniae [15]; 10 μM): 100%
- Live (Klebsiella pneumoniae [15]; 10 μM): 0%
- Dead (Mycobacterium smegmatis [16]): 93%
- Live (Mycobacterium smegmatis [16]): 7%
- Dead (Escherichia coli [17]): 75%
- Live (Escherichia coli [17]): 35%
- plasma membrane depolarization (red/green fluorescence ratio) (S. aureus): large membrane depolarization
- plasma membrane depolarization (red/green fluorescence ratio) (E. coli): large membrane depolarization
- MBC (Staphylococcus aureus [18]): 11 µM (≈ 7.31 µg/mL)
- MBC (Acinetobacter baumannii [19]): 8.5 µM (≈ 5.65 µg/mL)
- MBC (Klebsiella pneumoniae [20]): 8.5 µM (≈ 5.65 µg/mL)
- MBC (Mycobacterium smegmatis [21]): 11.5 µM (≈ 7.65 µg/mL)
- MBC (Escherichia coli [22]): 9 µM (≈ 5.98 µg/mL)

Second part, led by results:

- MIC (Staphylococcus aureus [5]): 3 µM (≈ 1.95 µg/mL)
- MIC (Pseudomonas aeruginosa): 12 µM (≈ 7.81 µg/mL)
- MIC (Acinetobacter baumannii [6]): 3.5 µM (≈ 2.28 µg/mL)
- MIC (Klebsiella pneumoniae [7]): 4 µM (≈ 2.6 µg/mL)
- MIC (Mycobacterium smegmatis [8]): 3 µM (≈ 1.95 µg/mL)
- MIC (Escherichia coli [9]): 3 µM (≈ 1.95 µg/mL)
- Ka [1, 24]: 1500 M⁻¹
- MIC (MRSA [11]): 3.5 µM (≈ 2.28 µg/mL)
SMILES: CCCCCCNC(=O)CCc1ccc2c(c1)CNCCCNCc1cc(CCC(=O)NCCCCCC)ccc1OCCCCO2 [Liptin 1i]
- MBC (MRSA [12]): 11.5 µM (≈ 7.49 µg/mL)
- MBC (Staphylococcus aureus [18]): 10.5 µM (≈ 6.83 µg/mL)
- MBC (Acinetobacter baumannii [19]): 11.5 µM (≈ 7.49 µg/mL)
- MBC (Klebsiella pneumoniae [20]): 12 µM (≈ 7.81 µg/mL)
- MBC (Mycobacterium smegmatis [21]): 10.5 µM (≈ 6.83 µg/mL)
- MBC (Escherichia coli [22]): 14 µM (≈ 9.11 µg/mL)

- MIC (Staphylococcus aureus [5]): 4 µM (≈ 2.66 µg/mL)
- MIC (Pseudomonas aeruginosa): 14 µM (≈ 9.31 µg/mL)
- MIC (Acinetobacter baumannii [6]): 4 µM (≈ 2.66 µg/mL)
- MIC (Klebsiella pneumoniae [7]): 3.5 µM (≈ 2.33 µg/mL)
- MIC (Mycobacterium smegmatis [8]): 3.5 µM (≈ 2.33 µg/mL)
- MIC (Escherichia coli [9]): 3.5 µM (≈ 2.33 µg/mL)
- MIC (MRSA [11]): 4.5 µM (≈ 2.99 µg/mL)
SMILES: CCCCCCNC(=O)CCc1ccc2c(c1)CNCCCCNCc1cc(CCC(=O)NCCCCCC)ccc1OCCCCO2 [Liptin 1j]
- MBC (MRSA [12]): 15 µM (≈ 9.97 µg/mL)
- MBC (Staphylococcus aureus [18]): 15.5 µM (≈ 10.3 µg/mL)
- MBC (Acinetobacter baumannii [19]): 12.5 µM (≈ 8.31 µg/mL)
- MBC (Klebsiella pneumoniae [20]): 13 µM (≈ 8.64 µg/mL)
- MBC (Mycobacterium smegmatis [21]): 12 µM (≈ 7.98 µg/mL)
- MBC (Escherichia coli [22]): 15 µM (≈ 9.97 µg/mL)
